Compound	melting point
COc1ccc(N2Cc3cnc(Nc4ccccc4)nc3N([C@@H](C)CO)C2=O)cc1 [Example 15d, (S)-(+)-1-(2-hydroxy-1-methyl-ethyl)-3-(4-methoxy-phenyl)-7-phenylamino-3,4-dihydro-1H-pyrimido[4,5-d]pyrimidin-2-one]	140 to 147 °C
COc1ccc(N2Cc3cnc(Nc4ccc(F)cc4)nc3N([C@@H](C)CO)C2=O)c(F)c1 [Example 21b, (S)-(+)-3-(2-fluoro-4-methoxy-phenyl)-7-(4-fluoro-phenylamino)-1-(2-hydroxy-1-methyl-ethyl)-3,4-dihydro-1H-pyrimido[4,5-d]pyrimidin-2-one]	173 to 177 °C
COc1ccc(N2Cc3cnc(Nc4ccccc4)nc3N([C@H](C)CO)C2=O)cc1 [Example 23d, (R)-(−)-1-(2-hydroxy-1-methyl-ethyl)-3-(4-methoxy-phenyl)-7-phenylamino-3,4-dihydro-1H-pyrimido[4,5-d]pyrimidin-2-one]	156 to 163 °C
COc1ccc(N2Cc3cnc(Nc4ccccc4)nc3N(C[C@@H](C)O)C2=O)cc1 [Example 28d, (R)-(−)-1-(2-hydroxy-propyl)-3-(4-methoxy-phenyl)-7-phenylamino-3,4-dihydro-1H-pyrimido[4,5-d]pyrimidin-2-one]	189 to 193 °C
COc1ccc(N2Cc3cnc(Nc4ccccc4)nc3N(C[C@H](C)O)C2=O)cc1 [Example 31d, (S)-(+)-1-(2-hydroxy-propyl)-3-(4-methoxy-phenyl)-7-phenylamino-3,4-dihydro-1H-pyrimido[4,5-d]pyrimidin-2-one]	188 to 193 °C

Reference: patent publication US7115740B2, “Pyrimido compounds having antiproliferative activity” (Hoffmann-la Roche Inc., priority 2003, dated 2006)
